Data published in paper PMC10515483, “Structure–Reactivity Studies of 2-Sulfonylpyrimidines Allow Selective Protein Arylation” (Bioconjugate Chemistry, 2023).
In brackets after ≈: the same amount, converted by molar mass.

Tests used:
[1] = Hydrolytic stability in KPi buffer without thiol (NMR); type: physicochemical; details: for % degradation: over 12 hours, 50 mM KPi, footnote a: crashing out of solution, no degradation product; for hydrolysis in aqueous buffer (in words): buffer in the absence of GSH
Protocol: NMR studies: rate constant determination and hydrolytic stability. 850 µL of 50 mM Kpi buffer solution (pH 8.2 or 7), 20 µL of the appropriate pyrimidine stock s olution (100 mM in DMSO -d6), 20 µL of TMSP stock solution (22.2 mM in DI water), 30 µL DMSO -d6, and 80 µL of GSH stock solution (0.25 M in DI water, reactivity only) were successively added/mixed at room temperature, final pH 7.0 or 6.5 (Table S1). 600 µL of this freshly prepared solution was poured into an NMR tube and immediately […]
transferred to the NMR instrument for acquisition. 1H spectra (16 scans) were recorded every 10 minutes under water suppression conditions. Following acquisition, spectra were analysed using […]
order reaction rate constants (k’).

[2] = Solubility in KPi buffer by NMR with TMSP internal standard; details: 50 mM KPi aqueous buffer, pH 7, aqueous with cosolvent or surfactant or cyclodextrin, kinetic from dmso stock
Source text: Stability and solubility assays
TopSpin. Normalised integrations of the pyrimidine aromatic 1H signals in the starting material and
product were plotted as a function of time (s), using the TMSP peak as standard for integral
calibration/normalisation and monitoring of compound solubility, allowing extraction of pseudo first
order reaction rate constants (k’). Second order rate constants (k) were back calculated from the ratio
of the pseudo first counterparts and the concentration of thiol in solution.
was confirmed by formation of a single S-arylated product (characteristic 2-alkylthioether signals),
concomitant with formation of the sulfinic acid by -product (leaving group). Hydrolytic stability
assessment was performed at pH 7.0 and pH 8.2 in a similar manner, in the absence of thiol.
Chemoselectivity. Similarly, but replacing GSH by other amino acids , reference 2-
methylsulfonylpyrimidine 4q in 50 mM KPi (pH 8.2) was incubated with 10 equivalents of either Boc-
Lys-OH, L-ser-OMe, N-Ac-Tyr-OH or Proline were used.

[3] = GSH arylation rate constants (NMR; UV-vis for fast warheads); type: physicochemical; set-up: key to rate constant (k) for the reaction with GSH / k: NR = no reaction; details: for k: Table S8, rate constants obtained at pH = 7; for k change (vs ref): ratio to rate constant of 4q, acceleration (+) or deceleration (-); for k/kref / ΔΔG≠1exp: relative to 4q; for ΔΔG≠1exp: via -RTln(k/kref); for times less reactive than 4q: GSH
Source text: We employed nuclear magnetic resonance (NMR) and UV–vis to quantify the reactivity of our 2-SP derivatives and other representative electrophiles (Figure 2) against cysteine. NMR allowed straightforward determination of reaction rate constants through dual monitoring of the consumption of the warhead and formation of the product by integration of their respective NMR signals (Figures S1–S3). It simultaneously provided a direct readout on reaction specificity and hydrolytic stability of the warhead. All measurements were carried out in KPi buffer in the presence of 5% d^6-dmso, which is generally well-tolerated by a wide range of proteins in in vitro studies. N-acetylcysteine methylester (NACME) and L-glutathione (GSH) are useful model cysteine nucleophiles for in vitro studies of electrophilic agents.[32] Mixing reference electrophile 2-methylsulfonylpyrimidine (4q) with NACME or GSH in a 1:10 ratio (pseudo-first-order conditions) allowed extraction of accurate and reproducible second order rate constants (k).
Figure 3 In vitro determination of electrophilic reactivity of compounds. (A) NMR assay setup for warhead/GSH reaction rate constant determination and chemoselectivity monitoring, over a 6 h time scale. Purple bead = GSH. Hydrolytic stability was determined in the same way over 36 h. d^4-Trimethylsilylpropanoate (TMSP, blue box) was used as an internal standard for monitoring the warhead solubility. Second-order reaction rate constants (k) were obtained from their pseudo-first-order counterparts (k′), by time-dependent normalized integration of the disappearing warhead signals. […] (B) Experimental second-order rate constants (y axis, log10 scale) for the reaction of representative 2-SP derivatives (left, 11 out of ca. 40 examples) and previously reported heteroarylsulfones (right) with GSH in a KPi buffer, pH 7.0, 20 °C. All rate constants were calculated as an average of at least two independent measurements. Numerical values and standard deviations at both pH 7.0 and 6.5, along with a full list of 2-SPs and other electrophile types tested, are presented in Tables S2–S6 and Figure S4. The horizontal dashed line marks the reaction rate of 2-methylsulfonylpyrimidine at pH 7.0, as a reference when comparing with other reagents (see main text).
To establish an accurate structure–reactivity profile of 2-SP reagents, we systematically determined their reaction rate constants for the arylation of GSH by NMR, at pH 7.0 and 6.5. This was a prerequisite to (i) quantify the influence of substitution on reaction rates; (ii) accurately assess the tunability and chemoselectivity of 2-SPs for cysteine arylation; (iii) determine the influence of pH on the reaction rates to further inform on the precise reaction mechanism; and (iv) benchmark the overall performance of 2-SPs with those of previously reported fast reacting heteroarylsulfones and other common cysteine reactive warheads (Figure 2C,D).

[4] = pH 6.5, by NMR, KPi buffer, 5% DMSO-d6
[5] = pH 7.0, by NMR, KPi buffer, 5% DMSO-d6
[6] = pH 6.5, measured by UV titrations

Row | SMILES | solubility [2] [µM] | rate constant (k) for the reaction with GSH [3, 4] | rate constant (k) for the reaction with GSH [3, 5] | k change (vs ref) ([3]; pH 7.0) | also measured
1 | CS(=O)(=O)c1ncc(Cl)cn1 [4s] | ≥ 2000 | 0.027 ± 0.012 M⁻¹ s⁻¹ | 0.19 ± 0.11 M⁻¹ s⁻¹ | +8 fold | % degradation ([1]; pH 8.2): 7%; k [3]: 0.19 M⁻¹ s⁻¹; k/kref [3]: 7.6; ΔΔG≠1exp [3]: -5.0 kJ/mol
2 | COc1nc(OC)nc(S(C)(=O)=O)n1 [compound 19, 2,4-dimethoxy-6-(methylsulfonyl)-1,3,5-triazine] | – | – | – | – | hydrolysis in aqueous buffer (in words) [1]: rapid hydrolysis in aqueous buffers or by trace/ambient moisture; k [3]: unstable
3 | Cc1cc(C)c([N+](=O)[O-])c(S(C)(=O)=O)n1 [compound 12, 4,6-dimethyl-2-(methylsulfonyl)-3-nitropyridine, reference compound] | ≥ 2000 | 0.00075 ± 0.00025 M⁻¹ s⁻¹ | 0.0028 ± 0.00025 M⁻¹ s⁻¹ | -9 fold | % degradation ([1]; pH 7.0): < 5%; % degradation ([1]; pH 8.2): < 5%; times less reactive than 4q ([3]; pH 7.0): ca. 5 times; k [3]: 0.0028 M⁻¹ s⁻¹; k/kref [3]: 0.11; ΔΔG≠1exp [3]: 5.4 kJ/mol
4 | CS(=O)(=O)c1nc2ccccc2s1 [compound 9, 2-Methysulfonylbenzothiazole, reference compound] | ≥ 2000 | 0.063 ± 0.023 M⁻¹ s⁻¹ | 0.23 ± 0.035 M⁻¹ s⁻¹ | +9 fold | % degradation ([1]; pH 7.0): 15%; % degradation ([1]; pH 8.2): < 5%; k [3]: 0.23 M⁻¹ s⁻¹; second order rate constant k with GSH ([3]; pH 7.0, KPi buffer): ≈ 0.23 M^–1 s^–1; k/kref [3]: 9.2; ΔΔG≠1exp [3]: -5.5 kJ/mol
5 | CS(=O)(=O)c1ncc(N)cn1 [4m] | – | NR | NR | – | second order rate constant k with GSH ([3]; pH 7.0, KPi buffer): < 5.0 × 10^–5 M^–1 s^–1; melting point: 138 °C
6 | CSc1ncc(-c2ccccc2)cn1 [2p] | – | NR | NR | – | melting point: 98 °C
7 | Cc1cnc(S(C)(=O)=O)nc1 [4o] | ≥ 2000 | NR | 0.0017 ± 0.0015 M⁻¹ s⁻¹ | -15 fold | % degradation ([1]; pH 8.2): < 5%; k [3]: 0.0017 M⁻¹ s⁻¹; k/kref [3]: 0.068; ΔΔG≠1exp [3]: 6.7 kJ/mol
8 | CSc1ncc(I)cn1 [2u] | – | NR | NR | – | melting point: 104 °C
9 | CS(=O)(=O)c1ncc([N+](=O)[O-])cn1 [4w] | ~130 (≈ 26.4 µg/mL) | – | – | +1,880 fold | hydrolysis in aqueous buffer (in words) [1]: partial, slow hydrolysis; rate constant (k) for the reaction with GSH [3, 6]: 15 ± 0.4 M⁻¹ s⁻¹; rate constant (k) for the reaction with GSH ([3]; pH 7.0, measured by UV titrations): 47 ± 1 M⁻¹ s⁻¹; melting point: 113 °C
10 | CSc1ncc([N+](=O)[O-])cn1 [2w] | – | 0.00025 ± 0.00016 M⁻¹ s⁻¹ | 0.0034 ± 0.0016 M⁻¹ s⁻¹ | – | melting point: 84 °C
11 | Cc1cc(C)c(C#N)c(S(C)(=O)=O)n1 [compound 11, 4,6-dimethyl-2-(methylsulfonyl)nicotinonitrile, reference compound] | ≥ 2000 | 0.00045 ± 5e-05 M⁻¹ s⁻¹ | 0.0023 ± 0.00025 M⁻¹ s⁻¹ | -11 fold | times less reactive than 4q ([3]; pH 7.0): ca. 5 times
12 | CSc1ncc(C(=O)O)cn1 [2v] | – | NR | NR | – | melting point: 251 °C
13 | CS(=O)(=O)c1ncc(F)cn1 [4r] | – | Multiple | Multiple | – | –
14 | CS(=O)(=O)c1nnnn1-c1ccccc1 [compound 7, 1-phenyl 5-methylsulfonyl tetrazole, reference compound] | ≥ 2000 | – | – | +170 fold | % degradation ([1]; pH 7.0): < 5%; % degradation ([1]; pH 8.2): 8%; second order rate constant k with GSH ([3]; pH 7.0, KPi buffer): ≈ 4.3 M^–1 s^–1
15 | CS(=O)(=O)c1nc2ccc([N+](=O)[O-])cc2s1 [compound 10, 2-(methylsulfonyl)-6-nitrobenzo[d]thiazole, reference compound] | – | – | – | +44,000 fold | rate constant (k) for the reaction with GSH [3, 6]: 290 ± 130 M⁻¹ s⁻¹; second order rate constant k with GSH ([3]; pH 7.0, KPi buffer): ≈ 1200 M^–1 s^–1
16 | Clc1nccc(-c2ccccc2)n1 [1e] | – | NR | NR | – | –
17 | Fc1ncccn1 [compound 13, reference compound] | – | – | NR | – | k [3]: NR
18 | CSc1nc(C)cc(C)n1 [2a] | – | NR | NR | – | –
19 | CSc1nccc(-c2ccccc2)n1 [2e] | – | NR | NR | – | –
20 | Oc1ncccn1 [compound 16, reference compound] | – | – | NR | – | –
21 | NC(=O)c1ccnc(Cl)n1 [1j] | – | NR | NR | – | –
22 | COc1cc(OC)nc(SC)n1 [2f] | – | NR | NR | – | –
